Laboratory results from patent publication US20250263370A1 (Tay Therapeutics Limited, priority 2022, published 2025).
Converted amounts (≈) assume the structure as drawn.

What was measured:
BRD4 BD1 = BRD4 BD1 (Homo sapiens (Human), UniProt O60885); assay: NanoBRET bromodomain assay, NanoLuc-BRD4-BD1 fusion in HEK293 cells; format: cell-based; settings: top concentration 10 μM
Procedure: HEK293 cells were transfected using NanoLuc-BRD4-BD1 or NanoLuc-BRD4-BD2 fusion vectors and incubated at 37° C. in an atmosphere of 5% CO2 for 20-24 hours. The transfected cells were then dispensed into 96-well plates using 90 μl cell suspension per well containing 2×10^5 cells/mL in Opti-MEM and 1× final concentration of tracer. 90 μL per well of cell suspension without tracer was also dispensed into at least 3 wells as “No tracer control samples” for background correction. Serially diluted test compounds were prepared at 1000× concentration in DMSO and further diluted to 10× concentration in Opti-MEM. […] Plates were then incubated at 37° C. +5% 002 incubator for 2 hours. […] Donor emission (450 nm) and acceptor emission (610 nm) were measured using PHERAstar (BMG LabTech). For data analysis, the raw BRET ratio was generated and converted to milliBRET units with background correction using the formula: [(Acceptorsample/Donorsample−(Acceptorno tracer control/Donorno tracer control)]×1000. The mBU data was plotted as a function of compound concentration and IC50s for BRET assay were determined by nonlinear regression analysis of concentration response curves using the Collaborative Drug Discovery Vault software. The fold-selectivity was calculated by dividing the IC50 for BRD4 BD1 by the IC50 for BRD4 BD2.

[1] = Thermodynamic solubility in FaSSIF pH 6.5 buffer; format: physicochemical; settings: Method 1 (UV-vis, 25° C., 24 hrs); for solubility thermodynamic at 24 h: FaSSIF buffer, 25 °C, pH 6.5, fassif, thermodynamic from solid
Procedure: FaSSIF v2 buffer is freshly prepared prior to use according to the suppliers' instructions and the pH adjusted to 6.5 using 1 M NaOH or 1 M HCl as required. From 1 mM working solution of test compound in DMSO, the λmax of the test compound is determined by scanning from 200 nm to 700 nm, in 1 nm steps with an EPOCH UV/Visible spectrophotometer (Biotek Instruments Inc.). A 12-point standard curve of compound concentration versus absorption at λmax is generated via two-fold serial dilutions of the 1 mM working solution with DMSO. Approximately 1 mg of test compound is accurately weighed into an Eppendorf tube and the appropriate volume of FaSSIF buffer is added to make a nominal concentration of 1 mg/mL. The tube is incubated on a rotator at 20 rpm, 25° C. for 24 hrs. Samples are then filtered using 0.45 μm filters (Sartorious, CAT #1776C) and the filtrate subjected to UV-vis spectroscopy analysis. The absorption at λmax is compared to the standard curve to determine the concentration of compound in solution after 24 hours.
FaSSIF buffer was prepared according to the suppliers' instructions and the pH adjusted to 6.5 using 1 M NaOH or 1 M HCl as required. […] A stir stick was added to each vial and vials sealed with a moulded PTDE/SIL 96-well plate cover. The plate was shaken at 25° C. at 1,100 rpm using an Eppendorf Thermomixer Comfort plate shaker. The plates were filtered using a vacuum manifold and diluted with a mixture of H2O and acetonitrile containing internal standard. The concentration of the test compound in the filtrate was determined by LCMS analysis with reference to the internal standards to determine the solubility in the buffer.

[2] = Intrinsic clearance in liver microsomes, rat; format: in vitro ADME; settings: Method 1; for Half-Life (T1/2) (min), Rat: rat liver microsomes
In short: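 Compound at 1 μM (0.1–1% DMSO) incubated at 37 °C with mouse or rat liver microsomes (0.5 mg/mL protein) and 1 mM NADPH in PBS pH 7.4; samples taken up to 60 min and quenched in cold acetonitrile. LC-MS/MS of percent remaining gave half-life and CLint; no-NADPH controls run.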

BRD4 BD2 = BRD4 BD2 (Homo sapiens (Human), UniProt O60885); assay: NanoBRET bromodomain assay, NanoLuc-BRD4-BD2 fusion in HEK293 cells; settings: for IC50: BRD4 BD2 (IC50), NanoBRET, HEK293 cells, top concentration 10 μM; for Fold selectivity: IC50 for BRD4 BD1 divided by IC50 for BRD4 BD2, qualitative if an IC50 is at the upper limit;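 as to all read-outs here: tracer displacement BRET read in transfected cells after 2 h compound exposure at 37 °C, signal in milliBRET units corrected against no-tracer background wells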
[3] = Intrinsic clearance in liver microsomes, mouse; format: in vitro ADME; settings: pH 7.4, Method 2, read-out: Half-Life (T1/2) (min), Mouse
Procedure: From stock solution of compound on 10 mM DMSO, a working solution of 0.1 mM is prepared by diluting the compound in DMSO. 6.25 μL of a 20 mg/mL solution of microsomes in PBS pH 7.4 buffer is added to 216.25 μL PBS pH 7.4 buffer (final microsome concentration—0.5 mg/mL). 25 μL of 10 mM solution of NADPH in PBS pH 7.4 buffer is added to the incubations (final NADPH concentration—1 mM). The mixture is pre-warmed to 37° C. for 10 minutes. 2.5 μL of test compound working solution is added (final compound concentration—1 μM with 1% DMSO). Aliquots of 30 μL are taken from the reaction solution at 0.5, 5, 15, 30 and 60 minutes. The reaction was stopped by the addition of 5 volumes of cold acetonitrile with IS (100 nM alprazolam, 200 nM caffeine and 100 nM tolbutamide). Samples were centrifuged at 3, 220 g for 40 minutes. Aliquots of 100 μL of the supernatant are mixed with 100 μL of ultra-pure H2O and used for LC-MS/MS analysis. The percent compound remaining at each time point is calculated with respect to that of the 0.5 min sample. The data are analysed to calculate half-life. Control experiments are run without NADPH and blank samples are prepared using DMSO without the test compound.
A 50 mM stock solution (in DMSO) is prepared for the compound. From the stock solution, a working solution of 0.5 mM is prepared by diluting the compound in DMSO. This concentration of working solution is prepared considering a final concentration of 1 uM with 0.1% DMSO. The compound (1 μL of working solution) is spiked in PBS with pH 7.4 ([…]) at a concentration of 1 μM. Subsequently, 110 μL of 10 mM NADPH is added (as a co-factor). The sample is incubated at 37° C. for 15 min. Following this, pre-warmed liver microsomes (27.5 μL; final protein conc. 0.5 mg/mL) are added. The samples are then incubated at 37° C. Aliquots of samples are withdrawn at 0, 5, 15, 30, 45 and 60 min. The reaction is stopped by using chilled acetonitrile containing internal standard. The samples are centrifuged, and the supernatants analysed by LC-MS/MS. The percent compound remaining at each time point is calculated with respect to that of the 0 min sample. The data are then analysed to calculate half-life and intrinsic clearance (CLint). Control experiments are run without NADPH and blank samples are prepared using DMSO without the test compound.

Row | SMILES | IC50 (BRD4 BD1) [nM] | solubility thermodynamic at 24 h [1] [µM] | half-life at 1 μM ([2]; rat, liver microsomes, pH 7.4, rat liver microsomes, read-out: Half-Life (T1/2) (min), Rat) [min] | IC50 (BRD4 BD2) [nM] | Fold selectivity (BRD4 BD2) | Half-Life (T1/2) (min), Rat [2] [min] | half-life at 1 μM [3] [min] | Thermodynamic Solubility FaSSIF pH 6.5 (μM) [1] [μM]
1 | CNC(=O)c1[nH]c(C(=O)NC2CCC(F)(F)CC2)cc1OC(C)c1ccccc1 (single isomer, unassigned) [Example 103, N^5-(4,4-difluorocyclohexyl)-N^2-methyl-3-(1-phenylethoxy)-1H-pyrrole-2,5-dicarboxamide] | ≥ 10000 | 57 (≈ 23.1 µg/mL) | 19 | 50 to 200 | XX (Fold >50 and ≤200) |  |  | 
2 | CNC(=O)c1[nH]c(C(=O)N[C@H]2CC[C@H](OC)CC2)cc1OC(C)c1ccccc1 (single isomer, unassigned) [Example 99, N^5-(trans-4-methoxycyclohexyl)-N^2-methyl-3-(1-phenylethoxy)-1H-pyrrole-2,5-dicarboxamide] | ≥ 10000 | 359 (≈ 143 µg/mL) |  | 50 to 200 | XX (Fold >50 and ≤200) | 39 |  | 
3 | CNC(=O)c1[nH]c(C(=O)N[C@@H]2CCC(F)(F)C2)cc1O[C@@H](C)c1ccccc1 [Example 111, N^5-((R)-3,3-difluorocyclopentyl)-N^2-methyl-3-((S)-1-phenylethoxy)-1H-pyrrole-2,5-dicarboxamide] | ≥ 10000 |  |  | 200 to 1000 | X (Fold >2 and ≤50) |  | > 60 | 
4 | CNC(=O)c1[nH]c(C(=O)NC2CC(F)(F)C2)cc1O[C@@H](C)c1ccccc1 [Example 109, (S)—N^5-(3,3-difluorocyclobutyl)-N^2-methyl-3-(1-phenylethoxy)-1H-pyrrole-2,5-dicarboxamide] | ≥ 10000 |  |  | 200 to 1000 | X (Fold >2 and ≤50) |  | > 60 | 
5 | CNC(=O)c1[nH]c(C(=O)N[C@@H]2CC[C@@H](O)C2)cc1O[C@@H](C)c1ccccc1 (racemic) [Example 116, N^5-(trans-3-hydroxycyclopentyl)-N^2-methyl-3-((S)-1-phenylethoxy)-1H-pyrrole-2,5-dicarboxamide] | ≥ 10000 |  |  |  | XX (Fold >50 and ≤200) |  | > 60 | 
6 | CNC(=O)c1[nH]c(C(=O)N[C@H]2CCC(F)(F)C2)cc1O[C@@H](C)c1ccccc1 [Example 110, N^5-((S)-3,3-difluorocyclopentyl)-N^2-methyl-3-((S)-1-phenylethoxy)-1H-pyrrole-2,5-dicarboxamide] | ≥ 10000 |  |  | 200 to 1000 | X (Fold >2 and ≤50) |  | > 60 | 
7 | CNC(=O)c1[nH]c(C(=O)NC23CC(C2)C3)cc1O[C@@H](C)c1ccccc1 [Example 117, (S)—N^5-(bicyclo [1.1.1]pentan-1-yl)-N^2-methyl-3-(1-phenylethoxy)-1H-pyrrole-2,5-dicarboxamide] | ≥ 10000 |  |  | 50 to 200 | XX (Fold >50 and ≤200) |  | > 60 | 
8 | CNC(=O)c1[nH]c(C(=O)N[C@@H]2CCOC2)cc1O[C@@H](C)c1ccccc1 [Example 114, N^2-methyl-3-((S)-1-phenylethoxy)-N^5-((R)-tetrahydrofuran-3-yl)-1H-pyrrole-2,5-dicarboxamide] | ≥ 10000 |  |  | 200 to 1000 | X (Fold >2 and ≤50) |  | > 60 | 
9 | CNC(=O)c1[nH]c(C(=O)NC2CC2)cc1O[C@@H](C)c1ccccc1 [Example 106, (S)—N^5-cyclopropyl-N^2-methyl-3-(1-phenylethoxy)-1H-pyrrole-2,5-dicarboxamide] | ≥ 10000 |  |  | 50 to 200 | XX (Fold >50 and ≤200) |  | > 60 | 
10 | CNC(=O)c1[nH]c(C(=O)N[C@H]2CC[C@H](O)C2)cc1O[C@@H](C)c1ccccc1 [Example 115, N^5-((1S,3S)-3-hydroxycyclopentyl)-N^2-methyl-3-((S)-1-phenylethoxy)-1H-pyrrole-2,5-dicarboxamide] | ≥ 10000 |  |  | 50 to 200 | XX (Fold >50 and ≤200) |  | > 60 | 
11 | CNC(=O)c1[nH]c(C(=O)NCCC(F)(F)F)cc1O[C@@H](C)c1ccccc1 [Example 112, (S)—N^2-methyl-3-(1-phenylethoxy)-N^5-(3,3,3-trifluoropropyl)-1H-pyrrole-2,5-dicarboxamide] | ≥ 10000 |  |  | 200 to 1000 | X (Fold >2 and ≤50) |  | > 60 | 
12 | CNC(=O)c1[nH]c(C(=O)N[C@H]2C[C@H](O)C2)cc1O[C@@H](C)c1ccccc1 [Example 108, N^5-(trans-3-hydroxycyclobutyl)-N^2-methyl-3-((S)-1-phenylethoxy)-1H-pyrrole-2,5-dicarboxamide] | ≥ 10000 |  |  | 50 to 200 | XX (Fold >50 and ≤200) |  | > 60 | 
13 | CNC(=O)c1[nH]c(C(=O)NC2COC2)cc1O[C@@H](C)c1ccccc1 [Example 107, (S)—N^2-methyl-N^5-(oxetan-3-yl)-3-(1-phenylethoxy)-1H-pyrrole-2,5-dicarboxamide] | ≥ 10000 |  |  | 50 to 200 | XX (Fold >50 and ≤200) |  | > 60 | 
14 | CNC(=O)c1[nH]c(C(=O)NC2CCC(F)(F)CC2)cc1OC(C)c1ccccc1 (single isomer, unassigned) [Example 104, N^5-(4,4-difluorocyclohexyl)-N^2-methyl-3-(1-phenylethoxy)-1H-pyrrole-2,5-dicarboxamide] | ≥ 10000 |  |  | > 10000 | — (Fold ≥0 and ≤2) | 10 |  | 47
15 | CNC(=O)c1[nH]c(C(=O)N[C@H]2CC[C@H](OC)CC2)cc1OC(C)c1ccccc1 (single isomer, unassigned) [Example 100, N^5-(trans-4-methoxycyclohexyl)-N^2-methyl-3-(1-phenylethoxy)-1H-pyrrole-2,5-dicarboxamide] | ≥ 10000 |  |  | > 10000 | — (Fold ≥0 and ≤2) | 19 |  | 377
